In patent EP4810052A2, “HCRHR2 SELECTIVE POLYPEPTIDES” (Gubra A/S, priority 2023, dated 2026):
Starred links: 1 amine or outer side, 2 acyl side, 3 side chain; linkers in the order of their positions; H or OH if unused. Non-standard residues stand in square brackets, D forms with d. Residues, ends and D or L forms follow the SMILES beside them. Groups on a side chain read outwards from the residue. *: point of attachment. C20 diacid = O=C(O)CCCCCCCCCCCCCCCCCCC(=O)*; γGlu = O=C(O)[C@H](CCC(=O)[*:2])N[*:1]; Nle = CCCC[C@H](N)C(=O)O; AEEA = NCCOCCOCC(=O)O; Aib = CC(C)(N)C(=O)O

Molecular target: T1, rCRHR1 (Rattus norvegicus, UniProt P35353)
T1 construct: DYK (FLAG); host or cells: CHO-K1, transiently transfected
T1 sequence (P35353 24-415): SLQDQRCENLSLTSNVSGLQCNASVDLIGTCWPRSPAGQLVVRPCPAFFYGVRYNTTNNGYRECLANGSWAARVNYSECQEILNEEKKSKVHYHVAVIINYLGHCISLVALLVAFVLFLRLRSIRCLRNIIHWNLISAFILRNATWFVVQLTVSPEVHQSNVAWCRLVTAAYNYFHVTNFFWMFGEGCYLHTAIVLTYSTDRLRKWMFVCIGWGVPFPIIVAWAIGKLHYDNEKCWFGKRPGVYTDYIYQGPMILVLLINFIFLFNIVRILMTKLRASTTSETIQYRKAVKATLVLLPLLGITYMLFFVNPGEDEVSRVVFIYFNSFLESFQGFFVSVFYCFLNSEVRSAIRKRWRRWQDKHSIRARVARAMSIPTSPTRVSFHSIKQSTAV
Assay: cAMP potency, transiently transfected CHO-K1 cells, rCRHR1
Assay type: cell-based
Settings: transiently transfected CHO-K1, average n=3; read-out: Transient cell system EC50 (nM) rCRH R1
Method: Selected peptides were tested for potency on different species (mouse, rat, porcine) using transiently transfected CHO-K1 cells using the general procedure.

## CCCC[C@H](NC(=O)[C@@H](NC(=O)[C@H](CCC(=O)O)NC(=O)[C@H](C)NC(=O)[C@H](CC(N)=O)NC(=O)C(C)(C)NC(=O)[C@H](CCCCNC(=O)COCCOCCNC(=O)COCCOCCNC(=O)CC[C@H](NC(=O)CC[C@H](NC(=O)CCCCCCCCCCCCCCCCCCC(=O)O)C(=O)O)C(=O)O)NC(=O)[C@H](C)NC(=O)[C@H](CCC(N)=O)NC(=O)[C@H](CCC(=O)O)NC(=O)[C@H](CCCNC(=N)N)NC(=O)[C@H](C)NC(=O)[C@H](C)NC(=O)[C@H](CCCNC(=N)N)NC(=O)[C@H](C)NC(=O)[C@H](CCCNC(=N)N)NC(=O)[C@H](C)NC(=O)[C@H](CCC(N)=O)NC(=O)[C@H](CO)NC(=O)[C@H](CC(C)C)NC(=O)[C@H](CC(C)C)NC(=O)[C@@H](NC(=O)[C@H](CCC(N)=O)NC(=O)[C@H](CC(C)C)NC(=O)[C@H](CC(C)C)NC(=O)CNC(=O)[C@@H](NC(=O)[C@@H]1CCCN1C(=O)[C@@H](NC(=O)[C@H](CC(=O)O)NC(=O)[C@H](CC(C)C)NC(=O)[C@H](CO)NC(=O)[C@H](CC(C)C)NC(=O)[C@@H](NC(=O)[C@@H]1CCCN1)C(C)C)C(C)C)[C@@H](C)CC)[C@@H](C)CC)[C@@H](C)CC)C(=O)N[C@@H](C)C(=O)N[C@@H](CCC(=O)O)C(=O)N[C@H](C(N)=O)C(C)C [SEQ ID NO: 238] (H-PVLSLDVPIGLLQILLSQARARAAREQAK([AEEA-AEEA-γGlu-γGlu-C20 diacid])[Aib]NAEI[Nle]AEV-NH2)
  EC50: > 1000 nM
